According to PubChem BioAssay AID256 (DTP/NCI, 2004):
Values joined by “and” are separate entries in the source; they are usually repeats but may differ in a detail not shown here. Equal values may be shown once. Toxic doses and inconclusive results are not listed. How the source made its calls: active means survival T/C of 150% or more; inactive means T/C below 125% in these data.

System: CD2F1 mice, L1210 leukemia ip, survival T/C
Experiment: NCI In Vivo Anticancer Drug Screen. Data for tumor model L1210 Leukemia (intraperitoneal) in CD2F1 (CDF1) mice
Details: endpoint: mean survival time, higher = longer survival
Outline: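 Compound-dosed mice with transplantable tumor versus matched vehicle controls; endpoint ratio T/C reported.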

Measured: T/C

C[C@]12C=CC(=O)C=C1CC[C@@H]1[C@@H]2[C@@H](O)C[C@@]2(C)[C@H]1CC[C@]2(O)C(=O)CO
inactive: dose: 12.5 mg/kg/injection, schedule: Q01DX010 (sc), vehicle: steriod suspending solution 108 % of control | dose: 25.0 mg/kg/injection, schedule: Q01DX009 (sc), vehicle: steriod suspending solution 106 % of control and 109 % of control | dose: 25.0 mg/kg/injection, schedule: Q01DX010 (sc), vehicle: steriod suspending solution 108 % of control | dose: 50.0 mg/kg/injection, schedule: Q01DX009 (sc), vehicle: steriod suspending solution 113 % of control and 106 % of control | dose: 50.0 mg/kg/injection, schedule: Q01DX010 (sc), vehicle: steriod suspending solution 112 % of control | dose: 100.0 mg/kg/injection, schedule: Q01DX009 (sc), vehicle: steriod suspending solution 116 % of control | dose: 100.0 mg/kg/injection, schedule: Q01DX010 (sc), vehicle: steriod suspending solution 108 % of control | dose: 200.0 mg/kg/injection, schedule: Q01DX009 (sc), vehicle: steriod suspending solution 113 % of control and 116 % of control

Cc1ccc2nc(-c3ccc(NC(=O)Nc4cccc(F)c4)cc3)sc2c1
inactive: dose: 50.0 mg/kg/injection, schedule: Q01DX009 (ip), vehicle: saline with Tween-80 97 % of control | dose: 100.0 mg/kg/injection, schedule: Q01DX009 (ip), vehicle: saline with Tween-80 97 % of control

CC1=NCCc2c1cc1c([nH]c3ccccc31)c2C
inactive: dose: 44.0 mg/kg/injection, schedule: Q01DX009 (ip), vehicle: saline with Tween-80 114 % of control | dose: 67.0 mg/kg/injection, schedule: Q01DX009 (ip), vehicle: saline with Tween-80 96 % of control

CCN(CC)Cc1cc(Nc2c3ccc(Cl)cc3nc3ccc(OC)nc23)ccc1O
inactive: dose: 25.0 mg/kg/injection, schedule: Q01DX001 (ip), vehicle: saline with Tween-80 94 % of control | dose: 50.0 mg/kg/injection, schedule: Q01DX001 (ip), vehicle: saline with Tween-80 94 % of control | dose: 100.0 mg/kg/injection, schedule: Q01DX001 (ip), vehicle: saline with Tween-80 90 % of control | dose: 200.0 mg/kg/injection, schedule: Q01DX001 (ip), vehicle: saline with Tween-80 95 % of control | dose: 400.0 mg/kg/injection, schedule: Q01DX001 (ip), vehicle: saline with Tween-80 91 % of control
